Laboratory results: ChEMBL document CHEMBL5360673, “2B Determined: The Future of the Serotonin Receptor 2B in Drug Discovery” (J Med Chem, 2023)

What was measured:
[1] = biological target: T1, 5-hydroxytryptamine receptor 2B (Homo sapiens, UniProt P41595); test: Agonist activity at 5-HT2B receptor (unknown origin) assessed as stimulation of phospho-inositide hydrolysis by IP hydrolysis assay; format: functional
[2] = biological target: T1, 5-hydroxytryptamine receptor 2B; test: Agonist activity at 5-HT2B receptor (unknown origin) assessed as stimulation of intracellular calcium level by calcium mobilization assay; format: functional, cell-based
[3] = biological target: T1, 5-hydroxytryptamine receptor 2B; test: Agonist activity at 5-HT2B receptor (unknown origin) assessed as stimulation of […] by calcium mobilization assay; format: functional
[4] = biological target: T1, 5-hydroxytryptamine receptor 2B; test: Displacement of [3H]-LSD from human 5-HT2B receptor assessed as inhibition constant
[5] = biological target: T1, 5-hydroxytryptamine receptor 2B; test: Binding affinity to 5-HT2B receptor (unknown origin)
[6] = Selectivity ratio, […] for 5-HT2B (unknown origin)
Cytochrome P450 1A2 = biological target: T2, Cytochrome P450 1A2 (Homo sapiens, UniProt P05177); test: Inhibition of CYP1A2 (unknown origin); format: ADME
T2 sequence (P05177 whole entry): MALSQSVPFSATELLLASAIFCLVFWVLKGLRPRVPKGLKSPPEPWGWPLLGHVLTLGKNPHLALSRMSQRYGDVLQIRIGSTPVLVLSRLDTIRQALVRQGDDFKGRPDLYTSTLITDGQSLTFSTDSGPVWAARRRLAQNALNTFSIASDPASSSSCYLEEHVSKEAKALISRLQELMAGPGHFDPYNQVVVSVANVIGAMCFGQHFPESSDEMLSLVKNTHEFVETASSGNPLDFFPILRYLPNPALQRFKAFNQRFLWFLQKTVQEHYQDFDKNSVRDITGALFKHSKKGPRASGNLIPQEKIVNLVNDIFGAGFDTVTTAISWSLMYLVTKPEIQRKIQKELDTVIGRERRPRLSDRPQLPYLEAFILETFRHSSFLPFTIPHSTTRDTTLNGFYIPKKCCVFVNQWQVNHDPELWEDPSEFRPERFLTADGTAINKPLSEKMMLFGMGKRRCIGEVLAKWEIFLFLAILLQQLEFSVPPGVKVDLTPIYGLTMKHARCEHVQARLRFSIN

Cytochrome P450 2C9 = Cytochrome P450 2C9 (Homo sapiens, UniProt P11712); test: Inhibition of CYP2C9 (unknown origin); format: ADME
Sequence of Cytochrome P450 2C9 (P11712 whole entry): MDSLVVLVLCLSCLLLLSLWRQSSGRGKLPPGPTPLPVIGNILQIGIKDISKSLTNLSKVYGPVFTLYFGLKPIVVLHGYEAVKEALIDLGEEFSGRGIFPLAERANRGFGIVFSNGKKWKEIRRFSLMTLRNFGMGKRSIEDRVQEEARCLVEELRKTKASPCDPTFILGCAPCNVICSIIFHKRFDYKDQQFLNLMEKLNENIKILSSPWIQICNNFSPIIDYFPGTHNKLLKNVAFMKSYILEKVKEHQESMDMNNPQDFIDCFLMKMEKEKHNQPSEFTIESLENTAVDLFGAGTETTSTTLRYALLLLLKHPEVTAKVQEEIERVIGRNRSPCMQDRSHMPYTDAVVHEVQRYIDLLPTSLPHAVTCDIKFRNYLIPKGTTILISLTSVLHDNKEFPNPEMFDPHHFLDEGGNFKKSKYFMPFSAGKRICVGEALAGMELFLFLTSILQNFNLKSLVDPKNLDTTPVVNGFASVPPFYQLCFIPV

Cytochrome P450 2D6 = Cytochrome P450 2D6 (Homo sapiens, UniProt P10635); test: Inhibition of CYP2D6 (unknown origin); format: ADME
Sequence of Cytochrome P450 2D6 (P10635 whole entry): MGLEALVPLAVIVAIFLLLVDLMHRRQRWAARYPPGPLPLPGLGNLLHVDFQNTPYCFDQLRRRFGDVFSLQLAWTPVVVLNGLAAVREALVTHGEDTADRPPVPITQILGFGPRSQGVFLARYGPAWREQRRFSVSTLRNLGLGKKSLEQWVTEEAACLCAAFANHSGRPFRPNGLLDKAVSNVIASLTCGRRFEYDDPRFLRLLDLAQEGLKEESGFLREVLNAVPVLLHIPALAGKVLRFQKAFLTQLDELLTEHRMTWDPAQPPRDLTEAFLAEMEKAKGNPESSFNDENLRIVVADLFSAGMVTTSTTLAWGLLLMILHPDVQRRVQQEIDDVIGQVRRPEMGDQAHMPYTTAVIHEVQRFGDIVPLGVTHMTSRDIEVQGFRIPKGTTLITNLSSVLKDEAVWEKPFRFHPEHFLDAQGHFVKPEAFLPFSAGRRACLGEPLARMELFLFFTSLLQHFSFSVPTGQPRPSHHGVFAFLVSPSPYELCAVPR

Cytochrome P450 3A4 = Cytochrome P450 3A4 (Homo sapiens, UniProt P08684); test: Inhibition of CYP3A4 (unknown origin); format: ADME
Sequence of Cytochrome P450 3A4 (P08684 whole entry): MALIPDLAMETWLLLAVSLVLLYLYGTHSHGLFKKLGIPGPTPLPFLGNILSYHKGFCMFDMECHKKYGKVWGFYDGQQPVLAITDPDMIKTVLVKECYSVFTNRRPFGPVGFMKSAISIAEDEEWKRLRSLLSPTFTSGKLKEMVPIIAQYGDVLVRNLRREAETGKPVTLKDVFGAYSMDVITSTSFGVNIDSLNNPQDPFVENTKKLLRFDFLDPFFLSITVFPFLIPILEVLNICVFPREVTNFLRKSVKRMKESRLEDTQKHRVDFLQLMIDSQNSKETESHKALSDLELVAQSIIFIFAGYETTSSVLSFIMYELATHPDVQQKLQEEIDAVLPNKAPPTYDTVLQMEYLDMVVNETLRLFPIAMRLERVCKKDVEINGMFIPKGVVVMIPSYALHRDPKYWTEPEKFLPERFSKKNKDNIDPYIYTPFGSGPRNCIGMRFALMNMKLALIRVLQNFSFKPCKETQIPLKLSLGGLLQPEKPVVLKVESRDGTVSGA

[7] = Ratio of drug concentration in brain to plasma of C57BL/6 mouse administered intraperitoneally and measured for 0.25 to 24 hrs; format: ADME; details: time 0.25-24 hrs, route ip, read-out: BPR
[8] = Half life in ip dosed C57BL/6 mouse; format: ADME, organism-based; details: in vivo
[9] = Cmax in ip dosed C57BL/6 mouse; format: ADME, organism-based; parameters: route ip; details: in vivo

T1 sequence (P41595 whole entry): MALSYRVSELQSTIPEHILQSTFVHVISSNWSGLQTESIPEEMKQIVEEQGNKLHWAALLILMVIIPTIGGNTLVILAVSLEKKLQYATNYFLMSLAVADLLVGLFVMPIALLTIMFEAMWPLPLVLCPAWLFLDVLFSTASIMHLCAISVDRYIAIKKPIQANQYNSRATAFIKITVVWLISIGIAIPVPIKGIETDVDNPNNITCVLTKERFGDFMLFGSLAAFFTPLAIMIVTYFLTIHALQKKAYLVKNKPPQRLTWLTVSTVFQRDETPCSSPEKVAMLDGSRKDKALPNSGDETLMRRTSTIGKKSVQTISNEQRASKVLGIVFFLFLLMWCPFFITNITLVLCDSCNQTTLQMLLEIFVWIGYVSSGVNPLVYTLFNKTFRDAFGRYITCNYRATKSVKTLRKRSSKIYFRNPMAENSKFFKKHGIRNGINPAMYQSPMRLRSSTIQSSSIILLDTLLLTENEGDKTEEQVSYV

C[C@H](N)Cc1cccc(C(F)(F)F)c1 [NORDEXFENFLURAMINE]
EC50 [1]: 23 nM | EC50 [2]: 23 nM | EC50 [3]: 23 nM

O=C1[C@@H]2[C@@H]3C[C@@H](C[C@H]3O)[C@@H]2C(=O)N1C[C@@H]1CCCC[C@H]1CN1CCN(c2nsc3ccccc23)CC1
Ki [4]: 24 nM

Cc1cc(NC(=O)Nc2ccc3c(ccn3C)c2)sn1
Ki [5]: 11.2 nM | Selectivity ratio [6]: > 135

Cn1ccc2cc(-n3c(=O)[nH]c4sc5c(c4c3=O)CCCC5)ccc21
IC50 (Cytochrome P450 1A2): > 30000 nM | IC50 (Cytochrome P450 2C9): > 30000 nM | IC50 (Cytochrome P450 2D6): > 30000 nM | IC50 (Cytochrome P450 3A4): > 30000 nM | Kp [7]: 0.01 | half-life [8]: 42 min | Cmax [9]: 43000 ng/mL
